What all share (assay): tumor cell line panel, SRB growth assay
Common to all, as to assay type: cell-based
A general note: Sulforhodamine B stains cellular protein and so reports cell mass.

For one experiment, the system named is A498. Conditions: Homo sapiens; A498, Renal, 48 hours. The procedure:
(§1) The compound of example 5 was also evaluated against a panel of cancer cell lines (Alley, M.C. et al. […] Cancer Research 48: 589-601; Grever, M. R., et al. (1992) Seminars in Oncology, Vol. 19, No. 6, pp 622-638; Boyd, M. R., and Paull, K. D. (1995) Drug Development Research 34: 91-109). The human tumor cell lines of the cancer screening panel were grown in RPMI 1640 medium containing 5% fetal bovine serum and 2 mM L-glutamine. Cells were inoculated into 96 well microtiter plates in 100 μL at plating densities ranging from 5,000 to 40,000 cells/well depending on the doubling time of individual cell lines. After cell inoculation, the microtiter plates were incubated at 37° C., 5 % CO2, 95 % air and 100 % relative humidity for 24 hours prior to addition of experimental drugs.
(§2) After the 24 hour incubation period, two plates of each cell line were fixed in situ with TCA, to represent a measurement of the cell population for each cell line at the time of drug addition (Tz). Experimental drugs were solubilized in dimethyl sulfoxide at 400-fold the desired final maximum test concentration and stored frozen prior to use. At the time of drug addition, an aliquot of frozen concentrate was thawed and diluted to twice the desired final maximum test concentration with complete medium containing 50 μg/ml gentamicin. Additional four, 10-fold or ½ log serial dilutions were made to provide a total of five drug concentrations plus control. Aliquots of 100 μl of these different drug dilutions were added to the appropriate microtiter wells already containing 100 μl of medium, resulting in the required final drug concentrations.
(§3) Following drug addition, the plates were incubated for an additional 48 hours at 37° C., 5 % CO2, 95 % air, and 100 % relative humidity. For adherent cells, the assay was terminated by the addition of cold TCA. Cells were fixed in situ by the gentle addition of 50 μl of cold 50 % (w/v) TCA (final concentration, 10% TCA) and incubated for 60 minutes at 4° C. The supernatant was discarded, and the plates were washed five times with tap water and air dried. Sulforhodamine B (SRB) solution (100 μl) at 0.4 % (w/v) in 1 % acetic acid were added to each well, and plates were incubated for 10 minutes at room temperature. After staining, unbound dye was removed by washing five times with 1 % acetic acid and the plates were air dried. Bound stain was subsequently solubilized with 10 mM trizma base, and the absorbance was read on an automated plate reader at a wavelength of 515 nm. For suspension of the cells, the methodology used was the same except that the assay was terminated by fixing settled cells at the bottom of the wells by gently adding 50 μl of 80 % TCA (final concentration, 16% TCA). Using the seven absorbance measurements [time zero, (Tz), control growth, (C), and test growth in the presence of drug at the five concentration levels (Ti)], the percentage growth was calculated at each of the drug concentrations levels.
(§4) Percentage growth inhibition was calculated as: [(Ti−Tz)/(C−Tz)]×100 for concentrations for which Ti>/=Tz [(Ti−Tz)/Tz]×100 for concentrations for which Ti<Tz.
(§5) Growth inhibition of 50% (GI50) was calculated from [(Ti−Tz)/(C−Tz)]×100=50, which is the drug concentration resulting in a 50% reduction in the net protein increase (as measured by SRB staining) in control cells during the drug incubation. The G150 was calculated for each of the cell lines if the level of activity is reached; however, if the effect was not reached or is exceeded, the value for that parameter is expressed as greater or less than the maximum (10^−4 M) or minimum (10^−8 M) concentration tested.

A further experiment concerns ACHN. The conditions noted are these: Homo sapiens, Renal, 48 hours. The procedure:
as §1, §2, §3, §4, §5

The subject of a further experiment is CAKI-1. Conditions: Homo sapiens; CAKI-1, Renal, 48 hours. The procedure:
as §1, §2, §3, §4, §5

Another experiment deals with DU-145. Conditions: Homo sapiens; DU-145, Prostate, 48 hours. The procedure:
as §1, §2, §3, §4, §5

The next experiment has as its system HCT-15. Conditions: Homo sapiens; HCT-15, Colon, 48 hours. The procedure: as §1, §2, §3, §4, §5
The next experiment deals with HOP-92. The conditions noted are these: Homo sapiens; HOP-92, Non-Small Cell Lung, 48 hours. The procedure: as §1, §2, §3, §4, §5
A further experiment concerns K-562. Conditions: Homo sapiens, K562; K-562, Leukemia, 48 hours. The procedure:
as §1, §2, §3, §4, §5

Another experiment deals with KM12. Conditions: Homo sapiens; KM12, Colon, 48 hours. The procedure: as §1, §2, §3, §4, §5
The test system of the next experiment is MALME-3M. The conditions noted are these: Homo sapiens, Melanoma, 48 hours. The procedure:
as §1, §2, §3, §4, §5

The subject of a further experiment is MCF7. The conditions noted are these: Homo sapiens; MCF7, Breast, 48 hours. The procedure: as §1, §2, §3, §4, §5
The test system of the next experiment is NCI-H522. Conditions: Homo sapiens; NCI-H522, Non-Small Cell Lung, 48 hours. The procedure:
as §1, §2, §3, §4, §5

The next experiment concerns NCI/ADR-RES. The conditions noted are these: Homo sapiens, Breast, 48 hours. The procedure:
as §1, §2, §3, §4, §5

Another experiment has as its system OVCAR-3. Conditions: Homo sapiens; OVCAR-3, Ovarian, 48 hours. The procedure: as §1, §2, §3, §4, §5
For the next experiment, the system named is OVCAR-4. The conditions noted are these: Homo sapiens; OVCAR-4, Ovarian, 48 hours. The procedure:
as §1, §2, §3, §4, §5

A further experiment relates to OVCAR-5. The conditions noted are these: Homo sapiens; OVCAR-5, Ovarian, 48 hours. The procedure: as §1, §2, §3, §4, §5
In another experiment the test system is OVCAR-8. The conditions noted are these: Homo sapiens; OVCAR-8, Ovarian, 48 hours. The procedure: as §1, §2, §3, §4, §5
In the next experiment the test system is RPMI-8226. The conditions noted are these: Homo sapiens; RPMI-8226, Leukemia, 48 hours. The procedure: as §1, §2, §3, §4, §5
Another experiment relates to SF-268. Conditions: Homo sapiens; SF-268, CNS, 48 hours. The procedure: as §1, §2, §3, §4, §5
Another experiment relates to SK-MEL-2. Conditions: Homo sapiens; SK-MEL-2, Melanoma, 48 hours. The procedure: as §1, §2, §3, §4, §5
Another experiment relates to SN12C. The conditions noted are these: Homo sapiens, Renal, 48 hours. The procedure:
as §1, §2, §3, §4, §5

In a further experiment the test system is SR. The conditions noted are these: Homo sapiens, Leukemia, 48 hours. The procedure:
as §1, §2, §3, §4, §5

Each structure is given as a SMILES string. Bounds are passed on as bounds.

Regarding `CO[C@@H]1[C@H](OC(=O)N[C@@H](C(N)=O)C(C)C)CC[C@]2(CO2)[C@H]1[C@@]1(C)O[C@@H]1CC=C(C)C` [Example 5, (1-Carbamoyl-2-methyl-propyl)-carbamic acid-(3R, 4S, 5S, 6R )-5-methoxy-4-[(2R, 3R)-2-methyl-3-(3-methyl-but-2-enyl)-oxiranyl]-1-oxa-spiro[2.5]oct-6-yl ester], the GI50 (usually the concentration that inhibits growth by half) in the experiment with A498 is over 100 µM; in the experiment with ACHN, under 0.01 µM; in the experiment on CAKI-1, under 0.01 µM; with DU-145, under 0.01 µM; with HCT-15 it was 7.13 µM; in the experiment with HOP-92, 33.9 µM. For the same compound, the concentration for 50% growth inhibition (GI50) with K-562 was 64.4 µM; in the experiment on KM12, under 0.01 µM; in the experiment on MALME-3M, 0.0531 µM; in the experiment on MCF7 it was 12.4 µM; in the experiment on NCI-H522, 12.9 µM; in the experiment on NCI/ADR-RES, 34.2 µM. Also, the concentration for 50% growth inhibition (GI50) with OVCAR-3 was 41.8 µM; in the experiment on OVCAR-4, 36.6 µM; with OVCAR-5, 0.0135 µM; with OVCAR-8 it was 18.4 µM; in the experiment with RPMI-8226, under 0.01 µM; in the experiment with SF-268 it was 26.1 µM. Also, the GI50 in the experiment on SK-MEL-2 was over 100 µM; with SN12C it was under 0.01 µM; with SR, under 0.01 µM.

Values taken from patent US20050059585A1, “Methionine aminopeptidase-2 inhibitors and methods of use thereof” (Praecis Pharmaceuticals Inc., priority 2000, published 2005).
